Experimental data reported in US20140288185A1, “NICOTINIC RECEPTOR NON-COMPETITIVE MODULATORS” (Targacept, Inc., priority 2011, published 2014).
pIC50, pKi: −log10 of the molar value. Read-outs that look alike come from different tables or passages of the source.

Columns and labels:
Nicotinic, human α4β2 = Nicotinic, human α4β2 (Homo sapiens, UniProt P17787+P43681); experiment: Competition binding, human α4β2 nicotinic receptor ([3H]nicotine)
Procedure: (§1) SH-EP1-human α4β2 (Eaton et al., 2003), cell lines were obtained from Dr. Ron Lukas (Barrow Neurological Institute). Cells were maintained in proliferative growth phase in Dulbecco's modified Eagle's medium (Invitrogen, Carlsbad, Calif.) with 10% horse serum (Invitrogen), 5% fetal bovine serum (HyClone, Logan Utah), 1 mM sodium pyruvate, 4 mM L-glutamine. For maintenance of stable transfectants, the α4β2 cell media was supplemented with 0.25 mg/mL zeocin and 0.13 mg/mL hygromycin B.
(§2) Cells were harvested in ice-cold PBS, pH 7.4, then homogenized with a Polytron (Kinematica GmbH, Switzerland). Homogenates were centrifuged at 40,000 g for 20 minutes (4° C.). The pellet was re-suspended in PBS and protein concentration determined using the Pierce BCA Protein Assay kit (Pierce Biotechnology, Rockford, Ill.).
(§3) Binding to nicotinic receptors was assayed on membranes using standard methods adapted from published procedures (Lippiello and Fernandes 1986; Davies et al., 1999). In brief, membranes were reconstituted from frozen stocks and incubated for 2 h on ice in 150 μl assay buffer (50 mM Tris, 154 mM NaCl, pH 7.4) in the presence of competitor compound (0.001 nM to 100 μM) and radioligand. [^3H]-nicotine (L-(−)-[N-methyl-^3H]-nicotine, 69.5 Ci/mmol, Perkin-Elmer Life Sciences, Waltham, Mass.) was used for human α4β2 binding studies. [^3H]-epibatidine (52 Ci/mmol, Perkin-Elmer Life Sciences) was used for binding studies at the other nicotinic receptor subtypes. Incubation was terminated by rapid filtration on a multimanifold tissue harvester (Brandel, Gaithersburg, Md.) using GF/B filters presoaked in 0.33% polyethyleneimine (w/v) to reduce non-specific binding. Filters were washed 3 times with ice-cold assay buffer and the retained radioactivity was determined by liquid scintillation counting.
(§4) Binding data were expressed as percent total control binding. Replicates for each point were averaged and plotted against the log of drug concentration. The IC50 (concentration of the compound that produces 50% inhibition of binding) was determined by least squares non-linear regression using GraphPad Prism software (GraphPAD, San Diego, Calif.). Ki was calculated using the Cheng-Prusoff equation (Cheng and Prusoff, 1973).

human α4β2 (LS) = human α4β2 (LS) (Homo sapiens, UniProt P17787+P43681); experiment: Calcium flux inhibition, SH-EP1-human α4β2 maintained at 37° C. (LS); type: cell-based; conditions: for Emax: read-out: Human α4β2 Ca Flux Imax [37C/HS]
Procedure: as §1
Forty-eight hours prior to each experiment, cells were plated in 96 well black-walled, clear bottom plates (Corning, Corning, N.Y.) at 60-100,000 cells/well. On the day of the experiment, growth medium was gently removed, 200 μL 1×FLIPR Calcium 4 Assay reagent (Molecular Devices, Sunnyvale, Calif.) in assay buffer (20 mM HEPES, 7 mM TRIS base, 4 mM CaCl2, 5 mM D-glucose, 0.8 mM MgSO4, 5 mM KCl, 0.8 mM MgCl2, 120 mM N-methyl D-glucamine, 20 mM NaCl, pH 7.4 for SH-EP1-human α4β2 cells or 10 mM HEPES, 2.5 mM CaCl2, 5.6 mM D-glucose, 0.8 mM MgSO4, 5.3 mM KCl, 138 mM NaCl, pH 7.4 with TRIS-base for all other cell lines) was added to each well and plates were incubated at 37° C. for 1 hour (29° C. for the 29° C.-treated SH-EP1-human α4β2 cells). For inhibition studies, competitor compound (10 pM-10 μM) was added at the time of dye addition. The plates were removed from the incubator and allowed to equilibrate to room temperature. Plates were transferred to a FLIPR Tetra fluorometric imaging plate reader (Molecular Devices) for addition of compound and monitoring of fluorescence (excitation 485 nm, emission 525 nm). The amount of calcium flux was compared to both a positive (nicotine) and negative control (buffer alone). The positive control was defined as 100% response and the results of the test compounds were expressed as a percentage of the positive control. […] (LS), and 20 μM for SH-SY5Y cells or CHO_human α3β4.

[1] = target: T1, Human Ganglion (SH-SY5Y cells) (Homo sapiens, UniProt P30532+P30926+P32297); experiment: Calcium flux inhibition, human ganglion (SH-SY5Y cells); type: cell-based
T1 construct: endogenous in cells; host or cells: SH-SY5Y human neuroblastoma cells
Procedure: (§5) Forty-eight hours prior to each experiment, cells were plated in 96 well black-walled, clear bottom plates (Corning, Corning, N.Y.) at 60-100,000 cells/well. On the day of the experiment, growth medium was gently removed, 200 μL 1×FLIPR Calcium 4 Assay reagent (Molecular Devices, Sunnyvale, Calif.) in assay buffer (20 mM HEPES, 7 mM TRIS base, 4 mM CaCl2, 5 mM D-glucose, 0.8 mM MgSO4, 5 mM KCl, 0.8 mM MgCl2, 120 mM N-methyl D-glucamine, 20 mM NaCl, pH 7.4 for SH-EP1-human α4β2 cells or 10 mM HEPES, 2.5 mM CaCl2, 5.6 mM D-glucose, 0.8 mM MgSO4, 5.3 mM KCl, 138 mM NaCl, pH 7.4 with TRIS-base for all other cell lines) was added to each well and plates were incubated at 37° C. for 1 hour (29° C. for the 29° C.-treated SH-EP1-human α4β2 cells). For inhibition studies, competitor compound (10 pM-10 μM) was added at the time of dye addition. The plates were removed from the incubator and allowed to equilibrate to room temperature. Plates were transferred to a FLIPR Tetra fluorometric imaging plate reader (Molecular Devices) for addition of compound and monitoring of fluorescence (excitation 485 nm, emission 525 nm). The amount of calcium flux was compared to both a positive (nicotine) and negative control (buffer alone). The positive control was defined as 100% response and the results of the test compounds were expressed as a percentage of the positive control. For inhibition studies, the agonist nicotine was used at concentrations of 1 μM for SH-EP1-human α4β2 treated at 29° C. (HS), 10 μM for SH-EP1-human α4β2 maintained at 37° C. (LS), and 20 μM for SH-SY5Y cells or CHO_human α3β4.

Nicotinic, human α3β4 = target: T2, Nicotinic, human α3β4 (Homo sapiens, UniProt P30926+P32297); experiment: Competition binding, human α3β4 nicotinic receptor (CHO human α3β4 membranes)
T2 construct: host or cells: CHO
Procedure: (§6) CHO-human α3β4 cells (obtained from ChanTest, Cleveland, Ohio, catalog #CT6021) were maintained in proliferative growth phase in Ham's F12 (VWR) with 10% fetal bovine serum (Invitrogen), 0.25 mg/mL geneticin; 0.4 mg/ml zeocin. The amino acid sequences encoded by the transfected cDNA constructs used to generate the CHO-human α3β4 cells are identical to the translated sequences for GenBank accession numbers NM_000743.2 and NM_000750.3, respectively.
as §2, §3, §4

human α3β4 = target: T3, human α3β4 (Homo sapiens, UniProt P30926+P32297); experiment: Calcium flux inhibition, CHO-human α3β4 cells; type: cell-based
T3 construct: host or cells: CHO
Procedure: as §6, §5

Nicotinic, human α3β4α5 = target: T4, Nicotinic, human α3β4α5 (Homo sapiens, UniProt P30532+P30926+P32297); experiment: Competition binding, human ganglion nicotinic receptor (SH-SY5Y membranes)
T4 construct: endogenous in cells; host or cells: SH-SY5Y human neuroblastoma cells
Procedure: as §2, §3, §4

human α4β2 (HS) = human α4β2 (HS) (Homo sapiens, UniProt P17787+P43681); experiment: Calcium flux inhibition, SH-EP1-human α4β2 treated at 29° C. (HS); type: cell-based
Procedure: as §1, §5

[2] = SH-EP1-Human α4β2 cell membranes, [3H]nicotine 2 nM, read-out: Human α4β2 Ki
[3] = cells maintained at 37° C. (LS), nicotine 10 μM, read-out: Human α4β2 Ca Flux IC50 [37C/LS]
[4] = cells maintained at 37° C., nicotine 10 μM
[5] = SH-SY5Y cells, nicotine 20 μM, read-out: Human Ganglion Ca Flux IC50
[6] = CHO Human α3β4 membranes, [3H]epibatidine 1 nM, read-out: Human CHO α3β4 Ki
[7] = nicotine 20 μM, read-out: Human CHO α3β4 Ca Flux IC50
[8] = 29° C.-treated cells (HS), nicotine 1 μM
[9] = 29° C.-treated cells (HS), nicotine 1 μM, read-out: Human α4β2 Ca Flux IC50 [29C/HS]

Row | SMILES | pKi (Nicotinic, human α4β2; [2]) | pIC50 (human α4β2 (LS); [3]) | Emax (human α4β2 (LS); [4]) [%] | Human Ganglion Ca Flux Imax ([1]; SH-SY5Y cells, nicotine 20 μM) [% inh] | pIC50 [1, 5] | pKi (Nicotinic, human α3β4; [6]) | Emax (human α4β2 (LS)) [%] | Human CHO α3β4 Ca Flux Imax (human α3β4; nicotine 20 μM) [% inh] | pIC50 (human α3β4; [7]) | pKi (Nicotinic, human α4β2) | pKi (Nicotinic, human α3β4) | pKi (Nicotinic, human α3β4α5) | pIC50 (human α4β2 (HS)) | Human α4β2 Ca Flux Imax [29C/HS] (human α4β2 (HS); [8]) [% inh] | pIC50 (human α4β2 (LS)) | pIC50 (human α3β4) | pIC50 (human α4β2 (HS); [9]) | pKi (Nicotinic, human α3β4α5; SH-SY5Y cell membranes (α3β4α5), [3H]epibatidine 1 nM, read-out: Human Ganglion Ki) | pIC50 [1]
1 | [2H]C([2H])NC12CCCC1(C([2H])([2H])[2H])C1CCC2C1 (stereo not drawn) | 4.59 | 7.12 | 95 | 99 | 7.08 | – | – | – | – | – | – | – | – | – | – | – | – | – | –
2 | CC[C@]12CCC[C@@]1(N(C)C)[C@@H]1CC[C@H]2C1 | 4.19 | 6.43 | – | – | – | 4.15 | 99 | 96 | 6.70 | – | – | – | – | – | – | – | – | – | –
3 | CN[C@@]12CCC[C@@H]1[C@H]1CC[C@@H]2C1 | – | – | – | 95 | 6.31 | – | 96 | 97 | – | 4.29 | 4.10 | 4.15 | 6.42 | 97 | 6.42 | 6.18 | – | – | –
4 | CC[C@]12CCC[C@@]1(NC)[C@@H]1CC[C@H]2C1 | – | – | – | – | – | – | 94 | 97 | – | 4.49 | 4.28 | – | 6.29 | 100 | 5.16 | 6.92 | – | – | –
5 | CN(C)[C@@]12CCC[C@@H]1[C@H]1CC[C@@H]2C1 | 4.70 | 6.30 | 98 | – | – | 4.89 | – | 96 | 6.72 | – | – | – | – | 96 | – | – | 6.29 | – | –
6 | CNC12CCCC1(CO)C1CCC2C1 (stereo not drawn) | 4.51 | 6.42 | 90 | 91 | 6.70 | – | – | – | – | – | – | – | – | 99 | – | – | 6.43 | 4.05 | –
7 | C[N+](C)(C)[C@@]12CCC[C@@H]1[C@H]1CC[C@@H]2C1 | 5.16 | 6.59 | 98 | – | – | – | – | 94 | 6.03 | – | – | – | – | – | – | – | – | – | –
8 | CC[C@@]12CCC[C@]1(N(C)C)[C@H]1CC[C@@H]2C1 | 4.48 | 6.15 | – | – | – | 4.04 | 98 | 95 | 6.62 | – | – | – | – | – | – | – | – | – | –
9 | CCCCC12CCCC1(NC)C1CCC2C1 (stereo not drawn) | 4.14 | 6.85 | – | 93 | – | 4.13 | 96 | 96 | 6.52 | – | – | – | – | 99 | – | – | 6.34 | – | 7.62
10 | CN[C@]12CCC[C@H]1[C@@H]1CC[C@H]2C1 | – | – | – | 95 | 6.42 | – | 96 | 97 | – | 4.48 | – | – | 6.26 | 96 | 6.47 | 6.31 | – | – | –
11 | CN(C)[C@]12CCC[C@H]1[C@@H]1CC[C@H]2C1 | 4.33 | 6.39 | 98 | – | – | 4.80 | – | 97 | 6.64 | – | – | – | – | 99 | – | – | 6.39 | – | –
12 | CCC12CCCC1(NC)C1CCC2C1 (stereo not drawn) | – | – | – | 98 | 7.70 | – | 97 | 97 | – | 4.47 | 4.12 | – | 6.37 | 100 | 6.77 | 6.66 | – | – | –
13 | C[N+](C)(C)[C@]12CCC[C@H]1[C@@H]1CC[C@H]2C1 | 5.07 | 6.42 | 100 | 97 | 5.74 | 4.89 | – | – | – | – | – | – | – | – | – | – | – | – | –
14 | CCCC12CCCC1(NC)C1CCC2C1 (stereo not drawn) | – | – | – | 98 | 7.52 | – | 96 | 96 | – | 4.54 | 4.14 | 4.28 | 6.68 | 100 | 6.77 | 6.89 | – | – | –
